Test results as given in ChEMBL document CHEMBL4270635, “HDAC3 is a potential validated target for cancer: An overview on the benzamide-based selective HDAC3 inhibitors through comparative SAR/QSAR/QAAR approaches” (Eur J Med Chem, 2018).

Tests used:
[1] = target: T1, Histone deacetylase 3/Nuclear receptor corepressor 2 (HDAC3/NCoR2) (Homo sapiens, UniProt O15379); experiment: Inhibition of full length human C-terminal His-tagged HDAC3/N-terminal GST-tagged NCOR2 (395 to 489 residues) co-expressed in baculovirus infected sf9 cells using (FAM)-labeled acetylated peptide substrate after 60 mins by caliper microfluidic mobility shift assay
T1 sequence (O15379 whole entry, the tested form may be a part): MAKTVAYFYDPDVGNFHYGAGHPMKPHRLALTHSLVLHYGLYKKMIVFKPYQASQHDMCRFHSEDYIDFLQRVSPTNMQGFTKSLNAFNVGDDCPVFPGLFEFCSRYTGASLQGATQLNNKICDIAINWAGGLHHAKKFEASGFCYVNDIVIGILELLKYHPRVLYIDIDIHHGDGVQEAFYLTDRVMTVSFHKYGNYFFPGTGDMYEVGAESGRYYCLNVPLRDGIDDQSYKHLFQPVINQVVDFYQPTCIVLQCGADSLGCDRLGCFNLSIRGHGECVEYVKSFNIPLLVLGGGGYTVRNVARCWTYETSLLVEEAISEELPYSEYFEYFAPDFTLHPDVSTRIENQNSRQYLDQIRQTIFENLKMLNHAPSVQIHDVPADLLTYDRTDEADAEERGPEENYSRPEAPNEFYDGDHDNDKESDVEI
T1 sequence (Q9Y618 whole entry, further chain, the tested form may be a part): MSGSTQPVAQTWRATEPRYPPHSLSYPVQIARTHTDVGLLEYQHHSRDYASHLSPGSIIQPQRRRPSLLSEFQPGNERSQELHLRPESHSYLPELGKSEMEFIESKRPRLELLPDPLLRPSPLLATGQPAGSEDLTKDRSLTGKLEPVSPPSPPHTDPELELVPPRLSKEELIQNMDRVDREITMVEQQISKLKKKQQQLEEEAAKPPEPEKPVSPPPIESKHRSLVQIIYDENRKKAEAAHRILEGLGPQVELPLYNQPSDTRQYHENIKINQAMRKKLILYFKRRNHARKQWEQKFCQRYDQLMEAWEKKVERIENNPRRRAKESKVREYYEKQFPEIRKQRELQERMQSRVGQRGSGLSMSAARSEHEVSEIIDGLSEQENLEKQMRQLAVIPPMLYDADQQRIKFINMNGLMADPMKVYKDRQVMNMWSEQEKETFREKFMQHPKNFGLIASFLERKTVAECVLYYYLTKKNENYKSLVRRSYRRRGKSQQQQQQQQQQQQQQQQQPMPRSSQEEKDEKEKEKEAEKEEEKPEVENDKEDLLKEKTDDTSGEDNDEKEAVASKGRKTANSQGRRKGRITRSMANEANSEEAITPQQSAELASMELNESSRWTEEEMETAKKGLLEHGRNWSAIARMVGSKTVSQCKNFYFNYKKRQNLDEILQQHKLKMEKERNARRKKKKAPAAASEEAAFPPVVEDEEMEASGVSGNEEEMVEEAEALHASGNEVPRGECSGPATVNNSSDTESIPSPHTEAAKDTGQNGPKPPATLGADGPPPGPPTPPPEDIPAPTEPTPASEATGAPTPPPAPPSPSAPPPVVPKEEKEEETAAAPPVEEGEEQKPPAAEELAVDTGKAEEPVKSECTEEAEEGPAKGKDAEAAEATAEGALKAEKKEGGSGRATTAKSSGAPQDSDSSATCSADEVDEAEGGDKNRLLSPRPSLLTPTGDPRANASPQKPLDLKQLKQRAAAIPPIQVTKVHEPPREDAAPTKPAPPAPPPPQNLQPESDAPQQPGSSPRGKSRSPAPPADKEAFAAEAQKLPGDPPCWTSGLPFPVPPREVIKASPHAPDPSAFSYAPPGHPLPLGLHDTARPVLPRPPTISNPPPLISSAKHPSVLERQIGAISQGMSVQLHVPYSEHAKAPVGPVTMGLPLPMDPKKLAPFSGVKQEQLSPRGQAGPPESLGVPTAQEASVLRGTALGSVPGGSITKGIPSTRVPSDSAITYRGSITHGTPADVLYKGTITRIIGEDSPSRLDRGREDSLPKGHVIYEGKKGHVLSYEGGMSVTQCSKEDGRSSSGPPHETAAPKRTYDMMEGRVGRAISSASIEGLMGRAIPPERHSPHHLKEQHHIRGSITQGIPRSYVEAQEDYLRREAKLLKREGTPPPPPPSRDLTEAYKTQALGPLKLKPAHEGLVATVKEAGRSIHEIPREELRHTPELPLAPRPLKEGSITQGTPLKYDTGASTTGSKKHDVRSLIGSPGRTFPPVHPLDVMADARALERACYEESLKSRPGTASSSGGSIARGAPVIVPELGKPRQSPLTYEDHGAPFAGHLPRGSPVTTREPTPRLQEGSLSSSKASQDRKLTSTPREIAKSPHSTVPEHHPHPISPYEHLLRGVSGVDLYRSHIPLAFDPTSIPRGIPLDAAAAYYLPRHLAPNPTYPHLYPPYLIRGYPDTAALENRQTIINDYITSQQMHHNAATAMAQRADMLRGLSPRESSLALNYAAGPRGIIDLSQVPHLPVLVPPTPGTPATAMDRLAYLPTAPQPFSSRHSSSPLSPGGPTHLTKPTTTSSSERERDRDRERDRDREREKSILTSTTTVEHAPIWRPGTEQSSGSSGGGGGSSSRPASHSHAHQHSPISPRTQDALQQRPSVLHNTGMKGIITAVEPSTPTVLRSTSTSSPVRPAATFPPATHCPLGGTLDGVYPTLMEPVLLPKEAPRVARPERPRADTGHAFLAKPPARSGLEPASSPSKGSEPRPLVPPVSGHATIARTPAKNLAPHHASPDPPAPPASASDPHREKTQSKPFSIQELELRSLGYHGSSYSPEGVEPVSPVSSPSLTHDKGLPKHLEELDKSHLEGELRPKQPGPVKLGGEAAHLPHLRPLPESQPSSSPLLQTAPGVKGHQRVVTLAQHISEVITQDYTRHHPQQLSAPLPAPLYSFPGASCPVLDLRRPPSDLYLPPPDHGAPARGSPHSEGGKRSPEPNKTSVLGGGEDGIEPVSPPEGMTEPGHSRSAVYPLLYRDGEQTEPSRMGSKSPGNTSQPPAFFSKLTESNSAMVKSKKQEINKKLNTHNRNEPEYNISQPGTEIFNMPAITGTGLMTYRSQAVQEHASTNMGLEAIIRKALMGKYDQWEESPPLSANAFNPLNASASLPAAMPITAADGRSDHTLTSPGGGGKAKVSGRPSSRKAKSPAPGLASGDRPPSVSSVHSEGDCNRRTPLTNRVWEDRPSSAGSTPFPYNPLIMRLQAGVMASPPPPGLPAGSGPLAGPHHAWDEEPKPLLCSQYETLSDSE

[2] = target: T1, Histone deacetylase 3/Nuclear receptor corepressor 2 (HDAC3/NCoR2); experiment: biochemical; assay type: cell-based
Description: Inhibition of His6-tagged HDAC3/SMRT (395 to 489 residues) (unknown origin) co-expressed in baculovirus infected sf9 cells using (FAM)-labeled acetylated peptide substrate after 17 hrs by caliper microfluidic mobility shift assay

[3] = organism: Homo sapiens; experiment: Selectivity ratio of IC50 for HDAC6 (unknown origin) to IC50 for HDAC3 (unknown origin)
[4] = organism: Homo sapiens; experiment: Selectivity ratio of IC50 for HDAC4 (unknown origin) to IC50 for HDAC3 (unknown origin)
[5] = organism: Homo sapiens; experiment: Selectivity ratio of IC50 for HDAC2 (unknown origin) to IC50 for HDAC3 (unknown origin)
[6] = organism: Homo sapiens; experiment: Selectivity ratio of IC50 for HDAC7 (unknown origin) to IC50 for HDAC3 (unknown origin)
[7] = target: Histone deacetylase 3 (Homo sapiens, UniProt O15379); experiment: Inhibition of HDAC3 (unknown origin)
Histone deacetylase 3, sequence (O15379 whole entry): as the sequence (O15379 whole entry, the tested form may be a part) above

[8] = organism: Homo sapiens; experiment: Selectivity ratio of IC50 for HDAC1 (unknown origin) to IC50 for HDAC3 (unknown origin)
[9] = organism: Homo sapiens; experiment: Selectivity ratio of IC50 for HDAC8 (unknown origin) to IC50 for HDAC3 (unknown origin)

SMILES	IC50 [1]	IC50 [2]	also measured
Nc1cc(F)ccc1NC(=O)c1ccc(NC(=O)C2(c3ccccc3)CC2)cc1	200 nM		
CC[C@@H](C(=O)Nc1ccc(C(=O)Nc2ccc(F)cc2N)cc1)c1ccccc1	60 to 170 nM		
Nc1ccccc1NC(=O)CCCCCCC(=O)NO		21.1 nM	
CC(C)[C@@H](C(=O)Nc1ccc(C(=O)Nc2ccc(F)cc2N)cc1)c1ccccc1	300 to 1700 nM		
CCOC(=O)Nc1cccc(-c2csc(NC(=O)CCCCCCC(=O)Nc3ccccc3N)n2)c1		60 nM	
C=C1CN(Cc2ccc(C(=O)Nc3ccccc3N)cc2)C(=O)c2ccccc21			Ratio IC50 [3]: 2; Ratio IC50 [4]: 2; Ratio IC50 [5]: 2; Ratio IC50 [6]: 2; IC50 [7]: 16 nM; Ratio IC50 [8]: 2; Ratio IC50 [9]: 2
Nc1ccccc1NC(=O)CCCCCCC(=O)NOCc1ccccc1		552 nM	
CC(=O)Nc1cccc(-c2csc(NC(=O)CCCCCCC(=O)Nc3ccccc3N)n2)c1		30 nM	
Nc1cc(F)ccc1NC(=O)c1ccc(NC(=O)C2(c3ccccc3)CC2)cn1	1000 nM		
C[C@@H](C(=O)Nc1ccc(C(=O)Nc2ccc(F)cc2N)cc1)c1ccccc1	210 to 579 nM		
C[C@H](C(=O)Nc1ccc(C(=O)Nc2ccc(F)cc2N)cc1)c1ccccc1	130 to 230 nM		
CC[C@H](C(=O)Nc1ccc(C(=O)Nc2ccc(F)cc2N)cc1)c1ccccc1	110 to 530 nM		
Nc1cccc(-c2csc(NC(=O)CCCCCCC(=O)Nc3ccccc3N)n2)c1		60.3 nM	
CC(C)[C@H](C(=O)Nc1ccc(C(=O)Nc2ccc(F)cc2N)cc1)c1ccccc1	80 nM		
CC(=O)Nc1ccc(C(=O)Nc2ccc(F)cc2N)cc1			Ratio IC50 [5]: 17; Ratio IC50 [8]: 17
CC(C)(C)OC(=O)Nc1cccc(-c2csc(NC(=O)CCCCCCC(=O)Nc3ccccc3N)n2)c1		160 nM	
Nc1ccccc1NC(=O)CCCCCCC(=O)Nc1ccc(-c2cn(Cc3ccccc3)nn2)cc1		1500 nM	
